The NIST ThermoML archive (doi:10.1021/je3013205)
± gives the expanded uncertainty stated by the source.

Tests used:
[1] = 101 kPa, Liquid, Vibrating tube method
[2] = xn = mol fraction of the nth substance listed; conditions: 101 kPa, Liquid, Vibrating tube method

Compound: OCCO [1,2-ethanediol]
- mass density ([1]; 283.15 K): 1119.29 ± 0.33 kg/m3
- mass density ([1]; 293.15 K): 1112.37 ± 0.32 kg/m3
- mass density ([1]; 303.15 K): 1105.39 ± 0.31 kg/m3
- mass density ([1]; 313.15 K): 1098.34 ± 0.31 kg/m3
- mass density ([1]; 323.15 K): 1091.21 ± 0.3 kg/m3
- mass density ([1]; 333.15 K): 1083.99 ± 0.3 kg/m3
- mass density ([1]; 343.15 K): 1076.65 ± 0.29 kg/m3

Compound: NCCOCCO [2-(2-aminoethoxy)ethanol]
- mass density ([1]; 283.15 K): 1063.9 ± 0.97 kg/m3
- mass density ([1]; 293.15 K): 1055.86 ± 0.95 kg/m3
- mass density ([1]; 303.15 K): 1047.8 ± 0.94 kg/m3
- mass density ([1]; 313.15 K): 1039.73 ± 0.92 kg/m3
- mass density ([1]; 323.15 K): 1031.63 ± 0.9 kg/m3
- mass density ([1]; 333.15 K): 1023.46 ± 0.89 kg/m3
- mass density ([1]; 343.15 K): 1015.24 ± 0.87 kg/m3

Compound: NCCO [2-aminoethan-1-ol]
- mass density ([1]; 283.15 K): 1024.11 ± 0.25 kg/m3
- mass density ([1]; 293.15 K): 1016.23 ± 0.24 kg/m3
- mass density ([1]; 303.15 K): 1008.32 ± 0.24 kg/m3
- mass density ([1]; 313.15 K): 1000.37 ± 0.23 kg/m3
- mass density ([1]; 323.15 K): 992.364 ± 0.23 kg/m3
- mass density ([1]; 333.15 K): 984.301 ± 0.23 kg/m3
- mass density ([1]; 343.15 K): 976.153 ± 0.23 kg/m3

Compound: NCCO [2-aminoethan-1-ol] + CO
- mass density ([2]; 283.15 K, x2 = 0): 1024.11 ± 0.25 kg/m3
- mass density ([2]; 283.15 K, x2 = 0.0999): 1012.96 ± 0.22 kg/m3
- mass density ([2]; 283.15 K, x2 = 0.2): 1000.24 ± 0.19 kg/m3
- mass density ([2]; 283.15 K, x2 = 0.3001): 985.644 ± 0.18 kg/m3
- mass density ([2]; 283.15 K, x2 = 0.4): 969.73 ± 0.16 kg/m3
- mass density ([2]; 283.15 K, x2 = 0.5): 951.484 ± 0.15 kg/m3
- mass density ([2]; 283.15 K, x2 = 0.6001): 930.19 ± 0.14 kg/m3
- mass density ([2]; 283.15 K, x2 = 0.7026): 904.556 ± 0.14 kg/m3
- mass density ([2]; 283.15 K, x2 = 0.7998): 875.763 ± 0.14 kg/m3
- mass density ([2]; 283.15 K, x2 = 0.8999): 841.316 ± 0.14 kg/m3
- mass density ([2]; 293.15 K, x2 = 0): 1016.23 ± 0.24 kg/m3
- mass density ([2]; 293.15 K, x2 = 0.0999): 1005 ± 0.21 kg/m3
- mass density ([2]; 293.15 K, x2 = 0.2): 992.199 ± 0.19 kg/m3
- mass density ([2]; 293.15 K, x2 = 0.3001): 977.53 ± 0.18 kg/m3
- mass density ([2]; 293.15 K, x2 = 0.4): 961.548 ± 0.16 kg/m3
- mass density ([2]; 293.15 K, x2 = 0.5): 943.204 ± 0.15 kg/m3
- mass density ([2]; 293.15 K, x2 = 0.6001): 921.795 ± 0.14 kg/m3
- mass density ([2]; 293.15 K, x2 = 0.7026): 895.978 ± 0.14 kg/m3
- mass density ([2]; 293.15 K, x2 = 0.7998): 867.002 ± 0.14 kg/m3
- mass density ([2]; 293.15 K, x2 = 0.8999): 832.282 ± 0.14 kg/m3
- mass density ([2]; 303.15 K, x2 = 0): 1008.32 ± 0.24 kg/m3
- mass density ([2]; 303.15 K, x2 = 0.0999): 997.005 ± 0.21 kg/m3
- mass density ([2]; 303.15 K, x2 = 0.2): 984.108 ± 0.19 kg/m3
- mass density ([2]; 303.15 K, x2 = 0.3001): 969.37 ± 0.18 kg/m3
- mass density ([2]; 303.15 K, x2 = 0.4): 953.296 ± 0.17 kg/m3
- mass density ([2]; 303.15 K, x2 = 0.5): 934.844 ± 0.15 kg/m3
- mass density ([2]; 303.15 K, x2 = 0.6001): 913.321 ± 0.15 kg/m3
- mass density ([2]; 303.15 K, x2 = 0.7026): 887.345 ± 0.14 kg/m3
- mass density ([2]; 303.15 K, x2 = 0.7998): 858.177 ± 0.14 kg/m3
- mass density ([2]; 303.15 K, x2 = 0.8999): 823.2 ± 0.14 kg/m3
- mass density ([2]; 313.15 K, x2 = 0): 1000.37 ± 0.23 kg/m3
- mass density ([2]; 313.15 K, x2 = 0.0999): 988.961 ± 0.21 kg/m3
- mass density ([2]; 313.15 K, x2 = 0.2): 975.96 ± 0.19 kg/m3
- mass density ([2]; 313.15 K, x2 = 0.3001): 961.142 ± 0.18 kg/m3
- mass density ([2]; 313.15 K, x2 = 0.4): 944.973 ± 0.17 kg/m3
- mass density ([2]; 313.15 K, x2 = 0.5): 926.41 ± 0.16 kg/m3
- mass density ([2]; 313.15 K, x2 = 0.6001): 904.767 ± 0.15 kg/m3
- mass density ([2]; 313.15 K, x2 = 0.7026): 878.633 ± 0.14 kg/m3
- mass density ([2]; 313.15 K, x2 = 0.7998): 849.26 ± 0.14 kg/m3
- mass density ([2]; 313.15 K, x2 = 0.8999): 814.016 ± 0.14 kg/m3
- mass density ([2]; 323.15 K, x2 = 0): 992.364 ± 0.23 kg/m3
- mass density ([2]; 323.15 K, x2 = 0.0999): 980.886 ± 0.21 kg/m3
- mass density ([2]; 323.15 K, x2 = 0.2): 967.788 ± 0.19 kg/m3
- mass density ([2]; 323.15 K, x2 = 0.3001): 952.855 ± 0.18 kg/m3
- mass density ([2]; 323.15 K, x2 = 0.4): 936.722 ± 0.17 kg/m3
- mass density ([2]; 323.15 K, x2 = 0.5): 917.891 ± 0.16 kg/m3
- mass density ([2]; 323.15 K, x2 = 0.6001): 896.116 ± 0.15 kg/m3
- mass density ([2]; 323.15 K, x2 = 0.7026): 869.812 ± 0.15 kg/m3
- mass density ([2]; 323.15 K, x2 = 0.7998): 840.244 ± 0.14 kg/m3
- mass density ([2]; 323.15 K, x2 = 0.8999): 804.724 ± 0.15 kg/m3
- mass density ([2]; 333.15 K, x2 = 0): 984.301 ± 0.23 kg/m3
- mass density ([2]; 333.15 K, x2 = 0.0999): 972.713 ± 0.21 kg/m3
- mass density ([2]; 333.15 K, x2 = 0.2): 959.607 ± 0.2 kg/m3
- mass density ([2]; 333.15 K, x2 = 0.3001): 944.613 ± 0.18 kg/m3
- mass density ([2]; 333.15 K, x2 = 0.4): 928.096 ± 0.17 kg/m3
- mass density ([2]; 333.15 K, x2 = 0.5): 909.268 ± 0.16 kg/m3
- mass density ([2]; 333.15 K, x2 = 0.6001): 887.352 ± 0.15 kg/m3
- mass density ([2]; 333.15 K, x2 = 0.7026): 860.859 ± 0.15 kg/m3
- mass density ([2]; 333.15 K, x2 = 0.7998): 831.072 ± 0.15 kg/m3
- mass density ([2]; 333.15 K, x2 = 0.8999): 795.281 ± 0.15 kg/m3
